From patent US20070128217A1 (priority 2003, published 2007) come the findings set out here.

Test [1] concerns control sera (pooled serum of ten healthy LUMC hospital workers; commercial negative donor pooled serum from the Dutch bloodbank). In kind it is binding, human. On the set-up: Binding of Control serum LUMC to linear peptides / Binding of Control serum Blood-bank to linear peptides / Binding of Control serum LUMC to looped peptides / Binding of Control Serum Blood-Bank to Looped peptides / Binding of Control serum LUMC to linear peptides of the protein M of SARS-CoV Urbani / Binding of Control serum Blood-bank to linear peptides of the protein M of SARS-CoV Urbani / Binding of Control serum LUMC to looped peptides of the protein M of SARS-CoV Urbani / Binding of Control Serum Blood-Bank to Looped peptides of the protein M of SARS-CoV Urbani: unit not given here.

Test [2] has as its system rabbit serum obtained by immunizing a rabbit with the SARS-CoV strain Frankfurt 1. In kind it is binding. On the set-up: Binding of a rabbit serum to linear peptides / Binding of a rabbit serum to looped peptides / Rabbit serum linear peptides / Rabbit serum looped peptides / Binding of a rabbit serum to linear peptides of protein N of SARS-CoV Urbani (Rabbit serum linear peptides) / Binding of a rabbit serum to looped/cyclic peptides of protein N of SARS-CoV Urbani (Rabbit serum looped peptides): unit not given here.

Regarding HSGVKDYVVVHGYFT, in test [1], the “Binding of Control Serum Blood-Bank to Looped peptides” value was determined as 2.2, the “Binding of Control serum Blood-bank to linear peptides” value turned out to be 0.7, the “Binding of Control serum LUMC to linear peptides” value was determined as 0.8 and the “Binding of Control serum LUMC to looped peptides” value is 2.3. For the same sequence, in test [2], the “Binding of a rabbit serum to linear peptides” value is 0.1 and the “Binding of a rabbit serum to looped peptides” value came to 0.6.
Regarding HTMVQTCTPNVTINC, in test [1], the “Binding of Control Serum Blood-Bank to Looped peptides” value came to 0.8, the “Binding of Control serum Blood-bank to linear peptides” value was determined as 0.9, the “Binding of Control serum LUMC to linear peptides” value is 0.7 and the “Binding of Control serum LUMC to looped peptides” value was determined as 0.6. In test [2], the “Rabbit serum linear peptides” value is given as 0.4 and the “Rabbit serum looped peptides” value amounted to 0.2.
Take IGGYSEDRHSGVKDY: in test [1], the “Binding of Control Serum Blood-Bank to Looped peptides” value was 0.7, the “Binding of Control serum Blood-bank to linear peptides” value is on record as 0.4, the “Binding of Control serum LUMC to linear peptides” value amounted to 0.5 and the “Binding of Control serum LUMC to looped peptides” value was found to be 0.6. Besides, in test [2], the “Binding of a rabbit serum to linear peptides” value came to 0.1 and the “Binding of a rabbit serum to looped peptides” value is 0.6.
IGNYKLNTDHAGSND: in test [1], the “Binding of Control Serum Blood-Bank to Looped peptides of the protein M of SARS-CoV Urbani” value is 0.7, the “Binding of Control serum Blood-bank to linear peptides of the protein M of SARS-CoV Urbani” value is listed as 0.5, the “Binding of Control serum LUMC to linear peptides of the protein M of SARS-CoV Urbani” value is given as 0.3 and the “Binding of Control serum LUMC to looped peptides of the protein M of SARS-CoV Urbani” value was found to be 0.8. Moreover, in test [2], the “Rabbit serum linear peptides” value was 0.5 and the “Rabbit serum looped peptides” value turned out to be 0.0.
On to IIMRTFRIAIWNLDV, for which, in test [1], the “Binding of Control Serum Blood-Bank to Looped peptides of the protein X3 of SARS-CoV Urbani” value was determined as 0.9, the “Binding of Control serum Blood-bank to linear peptides of the protein X3 of SARS-CoV Urbani” value is 0.9, the “Binding of Control serum LUMC to linear peptides of the protein X3 of SARS-CoV Urbani” value turned out to be 0.7 and the “Binding of Control serum LUMC to looped peptides of the protein X3 of SARS-CoV Urbani” value was found to be 0.6. Also, in test [2], the “Rabbit serum linear peptides” value is given as 0.3 and the “Rabbit serum looped peptides” value is 0.5.
IISSIVRQLFKPLTK: in test [1], the “Binding of Control Serum Blood-Bank to Looped peptides of the protein X3 of SARS-CoV Urbani” value came out at 0.6, the “Binding of Control serum Blood-bank to linear peptides of the protein X3 of SARS-CoV Urbani” value turned out to be 0.8, the “Binding of Control serum LUMC to linear peptides of the protein X3 of SARS-CoV Urbani” value is 0.8 and the “Binding of Control serum LUMC to looped peptides of the protein X3 of SARS-CoV Urbani” value is 0.6. Further, in test [2], the “Rabbit serum linear peptides” value is reported as 0.6 and the “Rabbit serum looped peptides” value is 0.4.
Consider ILIIIMRTFRIAIWN, for which, in test [1], the “Binding of Control Serum Blood-Bank to Looped peptides of the protein X3 of SARS-CoV Urbani” value amounted to 0.7, the “Binding of Control serum Blood-bank to linear peptides of the protein X3 of SARS-CoV Urbani” value is reported as 0.8, the “Binding of Control serum LUMC to linear peptides of the protein X3 of SARS-CoV Urbani” value stood at 0.5 and the “Binding of Control serum LUMC to looped peptides of the protein X3 of SARS-CoV Urbani” value amounted to 0.3. In test [2], the “Rabbit serum linear peptides” value turned out to be 0.5 and the “Rabbit serum looped peptides” value came out at 0.6.
Take ISTPKLKEDYQIGGY: in test [1], the “Binding of Control Serum Blood-Bank to Looped peptides” value worked out at 0.7, the “Binding of Control serum Blood-bank to linear peptides” value worked out at 0.7, the “Binding of Control serum LUMC to linear peptides” value turned out to be 1.0 and the “Binding of Control serum LUMC to looped peptides” value was 0.5. Moreover, in test [2], the “Binding of a rabbit serum to linear peptides” value was 0.1 and the “Binding of a rabbit serum to looped peptides” value was 0.4.
With ITAQPVKIDNASPAS, in test [1], the “Binding of Control Serum Blood-Bank to Looped peptides” value was determined as 0.5, the “Binding of Control serum Blood-bank to linear peptides” value is given as 0.7, the “Binding of Control serum LUMC to linear peptides” value turned out to be 0.7 and the “Binding of Control serum LUMC to looped peptides” value was found to be 0.5. Besides, in test [2], the “Binding of a rabbit serum to linear peptides” value amounted to 0.1 and the “Binding of a rabbit serum to looped peptides” value was determined as 0.3.
In the case of IVNVSLVKPTVYVYS, in test [1], the “Binding of Control Serum Blood-Bank to Looped peptides” value is on record as 0.9, the “Binding of Control serum Blood-bank to linear peptides” value is given as 0.7, the “Binding of Control serum LUMC to linear peptides” value came to 0.4 and the “Binding of Control serum LUMC to looped peptides” value is 0.9. Besides, in test [2], the “Binding of a rabbit serum to linear peptides” value was 0.5 and the “Binding of a rabbit serum to looped peptides” value is on record as 0.5.
Consider KEDYQIGGYSEDRHS, for which, in test [1], the “Binding of Control Serum Blood-Bank to Looped peptides” value is 0.3, the “Binding of Control serum Blood-bank to linear peptides” value was 0.5, the “Binding of Control serum LUMC to linear peptides” value worked out at 0.5 and the “Binding of Control serum LUMC to looped peptides” value is recorded as 0.4. In test [2], the “Binding of a rabbit serum to linear peptides” value is recorded as 0.1 and the “Binding of a rabbit serum to looped peptides” value is given as 0.5.
With KIDNASPASTVHATA, in test [1], the “Binding of Control Serum Blood-Bank to Looped peptides” value is 0.6, the “Binding of Control serum Blood-bank to linear peptides” value amounted to 0.6, the “Binding of Control serum LUMC to linear peptides” value is given as 0.7 and the “Binding of Control serum LUMC to looped peptides” value stood at 0.7. Also, in test [2], the “Binding of a rabbit serum to linear peptides” value turned out to be 0.2 and the “Binding of a rabbit serum to looped peptides” value turned out to be 0.3.
For the sequence KKNYSELDDEEPMEL, in test [1], the “Binding of Control Serum Blood-Bank to Looped peptides of the protein X3 of SARS-CoV Urbani” value came to 0.6, the “Binding of Control serum Blood-bank to linear peptides of the protein X3 of SARS-CoV Urbani” value is 0.5, the “Binding of Control serum LUMC to linear peptides of the protein X3 of SARS-CoV Urbani” value was 0.4 and the “Binding of Control serum LUMC to looped peptides of the protein X3 of SARS-CoV Urbani” value is 0.9. For the same sequence, in test [2], the “Rabbit serum linear peptides” value is on record as 0.1 and the “Rabbit serum looped peptides” value stood at 0.0.
Take KLGASQRVGTDSGFA: in test [1], the “Binding of Control Serum Blood-Bank to Looped peptides of the protein M of SARS-CoV Urbani” value is reported as 0.8, the “Binding of Control serum Blood-bank to linear peptides of the protein M of SARS-CoV Urbani” value amounted to 0.9, the “Binding of Control serum LUMC to linear peptides of the protein M of SARS-CoV Urbani” value came to 0.9 and the “Binding of Control serum LUMC to looped peptides of the protein M of SARS-CoV Urbani” value is recorded as 0.9. Also, in test [2], the “Rabbit serum linear peptides” value is reported as 0.1 and the “Rabbit serum looped peptides” value amounted to 0.1.
For the sequence KLVVILRIGTQVLKT, in test [1], the “Binding of Control Serum Blood-Bank to Looped peptides” value is reported as 0.7, the “Binding of Control serum Blood-bank to linear peptides” value is listed as 0.8, the “Binding of Control serum LUMC to linear peptides” value amounted to 0.4 and the “Binding of Control serum LUMC to looped peptides” value amounted to 0.6. In addition, in test [2], the “Binding of a rabbit serum to linear peptides” value came out at 0.5 and the “Binding of a rabbit serum to looped peptides” value was 0.5.
LADNKFALTCTSTHF: in test [1], the “Binding of Control Serum Blood-Bank to Looped peptides” value amounted to 0.7, the “Binding of Control serum Blood-bank to linear peptides” value is 0.7, the “Binding of Control serum LUMC to linear peptides” value is given as 0.7 and the “Binding of Control serum LUMC to looped peptides” value came to 0.7. Moreover, in test [2], the “Rabbit serum linear peptides” value is 0.5 and the “Rabbit serum looped peptides” value is given as 0.5.
For LFKPLTKKNYSELDD, in test [1], the “Binding of Control Serum Blood-Bank to Looped peptides of the protein X3 of SARS-CoV Urbani” value is given as 0.8, the “Binding of Control serum Blood-bank to linear peptides of the protein X3 of SARS-CoV Urbani” value was 0.7, the “Binding of Control serum LUMC to linear peptides of the protein X3 of SARS-CoV Urbani” value was found to be 0.6 and the “Binding of Control serum LUMC to looped peptides of the protein X3 of SARS-CoV Urbani” value came out at 0.9. In addition, in test [2], the “Rabbit serum linear peptides” value is recorded as 0.3 and the “Rabbit serum looped peptides” value was found to be 0.4.
On to LGASQRVGTDSGFAA, for which, in test [1], the “Binding of Control Serum Blood-Bank to Looped peptides of the protein M of SARS-CoV Urbani” value is 0.6, the “Binding of Control serum Blood-bank to linear peptides of the protein M of SARS-CoV Urbani” value was found to be 0.9, the “Binding of Control serum LUMC to linear peptides of the protein M of SARS-CoV Urbani” value amounted to 0.5 and the “Binding of Control serum LUMC to looped peptides of the protein M of SARS-CoV Urbani” value came out at 0.8. Besides, in test [2], the “Rabbit serum linear peptides” value was determined as 0.3 and the “Rabbit serum looped peptides” value is recorded as 0.1.
